Read-outs that look alike come from different tables or passages of the source.
Key:
MYB = test: HiBiT protein abundance assay, MYB (K562 HiBiT knock-in); assay type: cell-based, human; conditions: HiBiT knock-in K562 cells, 24 hours, top dose 10 μM
Outline: (§1)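 Endogenously HiBiT-tagged K562 lines were treated for 24 h at 37 °C with 10-point 3-fold dilutions (top 10 μM final, DMSO ≤0.25%). Lytic LgBiT complementation luminescence was normalized between unmodified K562 (PC) and DMSO-treated tagged cells (NC); IC50 was interpolated at 50% from a four-parameter logistic fit.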

HTT = test: HiBiT protein abundance assay, HTT (K562 HiBiT knock-in); assay type: cell-based, human; conditions: HiBiT knock-in K562 cells, 24 hours, top dose 10 μM
Outline: as §1

Target C = test: HiBiT protein abundance assay, Target C (K562 HiBiT knock-in); assay type: cell-based, human; conditions: HiBiT knock-in K562 cells, 24 hours, top dose 10 μM
Outline: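 K562 HiBiT knock-in cells (10000/well) were treated 24 h at 37° C with a 10-point 3-fold dilution series (top 10 μM final, ≤0.25% DMSO). HiBiT luminescence was read after lytic LgBiT detection. Percent response used unmodified K562 and DMSO-treated knock-in controls, and IC50 came from a four-parameter fit at 50% of untreated.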

MYB mRNA = test: RT-qPCR splicing assay, MYB mRNA canonical (CJ) and alternative (AJ) junction; assay type: cell-based, human; conditions: Homo sapiens; for AC50: MYB alternative junction mRNA, read-out: MYB AJ (increase in AJ mRNA, AC50)
Outline: (§2)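 Canonical and alternative-exon junction isoforms were quantified by RT-qPCR in cell lysates, with ΔCt against a housekeeper (GAPDH/GUSB/PPIA), then ΔΔCt vs DMSO, converted to 2^(−ΔΔCt) and percent response. K562 or A673 cells were exposed for 24 h to 11 concentrations (3-fold, top final 10 uM).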

SMN2 mRNA = test: RT-qPCR splicing assay, SMN2 mRNA; assay type: cell-based, human; conditions: Homo sapiens, canonical junction qPCR panel, Table 4; read-out: SMN2 IC50 (decrease in CJ mRNA levels)
Outline: as §2

K562 cells = test: Cell Titer Glo 2.0 cell viability (toxicity) assay, K562; conditions: 500 cells/well, 72 hours
[1] = MYB canonical junction mRNA, RT-qPCR, read-out: MYB CJ (decrease in CJ mRNA levels, IC50)
[2] = canonical junction qPCR panel, Table 4, read-out: MYB IC50 (decrease in CJ mRNA levels)

Row | IC50 (MYB) [nM] | IC50 (HTT) [nM] | IC50 (Target C) [nM] | IC50 (MYB mRNA; [1]) [nM] | IC50 (MYB mRNA; [2]) [nM] | IC50 (SMN2 mRNA) [nM] | SMILES | AC50 (MYB mRNA; RT-qPCR) [nM] | Effect of Exemplary Compounds on Cell Viability, K562 (K562 cells)
1 | < 100 | < 100 | < 100 | < 100 | < 100 | < 100 | Cc1nc2c(C)c(O)c(-c3ccc4nc(N5CC[C@@H](NC6CC6)C5)ccc4n3)cc2o1 [Compound 217] | < 100 | B (B represents 100-1000 nM)
2 | < 100 | < 100 | < 100 | < 100 | < 100 | < 100 | Cn1cc2cc(-c3ccc4nc(N5CCC(NC6(C)CC6)C5)ccc4n3)c(O)cc2n1 (stereo not drawn) [Compound 219] | < 100 | A (A represents <100 nM)
3 | < 100 | < 100 | < 100 | < 100 | < 100 | < 100 | Cc1nc2cc(O)c(-c3ccc4nc(N5CC[C@@H](NC6CCC6)C5)ccc4n3)cc2o1 [Compound 229] | < 100 | B (B represents 100-1000 nM)
4 | 100 to 1000 | < 100 | < 100 | 100 to 1000 | 100 to 1000 | < 100 | Cc1nc2cc(O)c(-c3ccc4nc(N5CC[C@H](NC6CCC6)C5)ccc4n3)cc2o1 [Compound 230] | 100 to 1000 | B (B represents 100-1000 nM)
5 | < 100 | < 100 | < 100 | < 100 | < 100 | < 100 | Cc1nc2cc(O)c(-c3ccc4nc(N5CCC(NC(C)C)C5)ccc4n3)cc2o1 (stereo not drawn) [Compound 231] | < 100 | A (A represents <100 nM)
6 | < 100 | < 100 | < 100 | < 100 | < 100 | < 100 | Cc1nc2c(C)c(O)c(-c3ccc4nc(N5CCC(NC6CCC6)C5)ccc4n3)cc2o1 (stereo not drawn) [Compound 235] | < 100 | B (B represents 100-1000 nM)
7 | < 100 | < 100 | < 100 | < 100 | < 100 | < 100 | Cc1nc2c(C)c(O)c(-c3ccc4nc(N5CC[C@@H](NC6CCC6)C5)ccc4n3)cc2o1 [Compound 236] | < 100 | B (B represents 100-1000 nM)
8 | < 100 | < 100 | < 100 | < 100 | < 100 | < 100 | Cc1nc2c(C)c(O)c(-c3ccc4nc(N5CC[C@H](NC6CCC6)C5)ccc4n3)cc2o1 [Compound 237] | < 100 | B (B represents 100-1000 nM)
9 | 1000 to 10000 | 100 to 1000 | 100 to 1000 | 1000 to 10000 | 1000 to 10000 | 100 to 1000 | Cc1cc(-c2ccc3nc(N4CCC(NC(C)(C)C)C4)ccc3n2)nc2cn(C)nc12 (stereo not drawn) [Compound 248] | 1000 to 10000 | C (C represents 1000-9999 nM)
10 | < 100 | < 100 | < 100 | < 100 | < 100 | < 100 | Cc1c(O)c(-c2ccc3nc(N4CC[C@@H](NC(C)(C)C)C4)ccc3n2)cc2cn(C)nc12 [Compound 249] | < 100 | A (A represents <100 nM)
11 | < 100 | < 100 | < 100 | < 100 | < 100 | < 100 | Cc1c(O)c(-c2ccc3nc(N4CC[C@H](NC(C)(C)C)C4)ccc3n2)cc2cn(C)nc12 [Compound 250] | < 100 | B (B represents 100-1000 nM)
12 | > 10000 | > 10000 | 100 to 1000 | > 10000 | > 10000 | > 10000 | COc1c(-c2ccc3nc(N4CCC(NC(C)(C)C)C4)ccc3n2)cc2c[nH]nc2c1C (stereo not drawn) [Compound 251] | > 10000 | B (B represents 100-1000 nM)
13 | < 100 | < 100 | < 100 | < 100 | < 100 | < 100 | Cc1c(O)c(-c2ccc3nc(N4CCC(NCC5CC5)C4)ccc3n2)cc2cn(C)nc12 (stereo not drawn) [Compound 284, 5-(6-{3-[(cyclopropylmethyl)amino]pyrrolidin-1-yl}-1,5-naphthyridin-2-yl)-2,7-dimethylindazol-6-ol] | 100 to 1000 | B (B represents 100-1000 nM)
14 | < 100 | < 100 | < 100 | < 100 | < 100 | < 100 | Cc1c(O)c(-c2ccc3nc(N4CCC(NC5CCC5)C4)ccc3n2)cc2cn(C)nc12 (stereo not drawn) [Compound 288, 5-{6-[3-(cyclobutylamino)pyrrolidin-1-yl]-1,5-naphthyridin-2-yl}-2,7-dimethylindazol-6-ol] | < 100 | B (B represents 100-1000 nM)
15 | < 100 | < 100 | < 100 | < 100 | < 100 | < 100 | Cc1nc2c(F)c(O)c(-c3ccc4nc(N5CCC(NC6CCC6)C5)ccc4n3)cc2o1 (stereo not drawn) [Compound 293, 6-{6-[3-(cyclobutylamino)pyrrolidin-1-yl]-1,5-naphthyridin-2-yl}-4-fluoro-2-methyl-1,3-benzoxazol-5-ol] | < 100 | A (A represents <100 nM)
16 | 1000 to 10000 | 1000 to 10000 | 1000 to 10000 | 1000 to 10000 | 1000 to 10000 | 100 to 1000 | Cn1cc2cc(-c3ccc4nc(N5CCC(NC67CC(C6)C7)C5)ccc4n3)c(O)cc2n1 (stereo not drawn) [Compound 297, 5-[6-(3-{bicyclo[1.1.1]pentan-1-ylamino}pyrrolidin-1-yl)-1,5-naphthyridin-2-yl]-2-methylindazol-6-ol] | 100 to 1000 | D (D represents greater than 10 μM in K562 cells)
17 | < 100 | < 100 | < 100 | < 100 | < 100 | < 100 | Cn1cc2nc(-c3ccc4nc(N5CCC(NC(C)(C)C)C5)ccc4n3)c(O)cc2n1 (stereo not drawn) [Compound 298, 5-{6-[3-(tert-butylamino)pyrrolidin-1-yl]-1,5-naphthyridin-2-yl}-2-methylpyrazolo[4,3-b]pyridin-6-ol] | < 100 | B (B represents 100-1000 nM)
18 | < 100 | < 100 | 100 to 1000 | < 100 | < 100 | < 100 | Cn1cc2cc(-c3ccc4nc(N5CC[C@H](N[C@H]6C[C@@H](F)C6)C5)ccc4n3)c(O)cc2n1 [Compound 299, 2-methyl-5-{6-[(3S)-3-{[(1s,3s)-3-fluorocyclobutyl]amino}pyrrolidin-1-yl]-1,5-naphthyridin-2-yl}indazol-6-ol] | < 100 | B (B represents 100-1000 nM)
19 | 100 to 1000 | 100 to 1000 | 100 to 1000 | 100 to 1000 | 100 to 1000 | < 100 | Cc1c(O)c(-c2ccc3nc(N4CCC(NC5COC5)C4)ccc3n2)cc2cn(C)nc12 (stereo not drawn) [Compound 302, 2,7-dimethyl-5-{6-[3-(oxetan-3-ylamino)pyrrolidin-1-yl]-1,5-naphthyridin-2-yl}Indazol-6-ol] | 100 to 1000 | C (C represents 1000-9999 nM)
20 | < 100 | < 100 | < 100 | < 100 | < 100 | < 100 | Cc1nc2c(C)c(O)c(-c3ccc4nc(N5CCC(NC6(C)CC6)C5)ccc4n3)cc2o1 (stereo not drawn) [Compound 309, 2,4-dimethyl-6-(6-{3-[(1-methylcyclopropyl)amino]pyrrolidin-1-yl}-1,5-naphthyridin-2-yl)-1,3-benzoxazol-5-ol] | < 100 | B (B represents 100-1000 nM)
21 | < 100 | < 100 | < 100 | < 100 | < 100 | < 100 | Cc1nc2c(C)c(O)c(-c3ccc4nc(N5CCC(NC(C)C)C5)ccc4n3)cc2o1 (stereo not drawn) [Compound 312, 6-{6-[3-(isopropylamino)pyrrolidin-1-yl]-1,5-naphthyridin-2-yl}-2,4-dimethyl-1,3-benzoxazol-5-ol] | < 100 | A (A represents <100 nM)
